Among the data in PubChem BioAssay (NCI) are GI50 and TGI values, retold here.

Among the test systems are CCRF-CEM leukemia; IGROV1 ovarian; MDA-MB-435; NCI/ADR-RES ovarian; OVCAR-8 ovarian; RPMI-8226 leukemia; RXF 393 renal; SF-539 CNS; SNB-19 CNS; UACC-62 melanoma.
Assay in all cases: NCI tumour cell line growth inhibition, 48 h

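Tested at 5 concentrations; 48 h exposure; 96-well plates; endpoints linearly interpolated, else capped at highest concentration. The concentration for 50% growth inhibition is given as GI50. TGI denotes the concentration required for complete inhibition of growth.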 Where only a bound is given, the exact number is not on record here.

As to `NC1=NCCN1CC(=O)O`, the GI50 with CCRF-CEM leukemia, in the experiment with IGROV1 ovarian, in the experiment with MDA-MB-435, in the experiment on NCI/ADR-RES ovarian, with OVCAR-8 ovarian and with RPMI-8226 leukemia was > 10000 µM in each case. The GI50 in the experiment with RXF 393 renal, with SNB-19 CNS and in the experiment with UACC-62 melanoma was > 10000 µM throughout. Moreover, the TGI in the experiment on CCRF-CEM leukemia, in the experiment on IGROV1 ovarian, in the experiment with MDA-MB-435, in the experiment on NCI/ADR-RES ovarian, in the experiment with OVCAR-8 ovarian and in the experiment with RPMI-8226 leukemia was > 10000 µM each time. Besides, the TGI with RXF 393 renal was > 10000 µM; with SF-539 CNS, > 1000 µM; in the experiment on SNB-19 CNS, > 10000 µM; in the experiment with UACC-62 melanoma, > 10000 µM.
Turning to `C/C(=C\COc1c2c(cc3c1CCO3)OC1(C=C2)OC(CC/C(C)=C/COc2c3ccoc3cc3oc(=O)ccc23)C(C)(C)O1)CCC(O)C(C)(C)O` (stereo unspecified), the GI50 with CCRF-CEM leukemia was 8.78 µM; in the experiment with MDA-MB-435, 36.4 µM; with NCI/ADR-RES ovarian it was 23.8 µM; with OVCAR-8 ovarian, 8.56 µM; with RPMI-8226 leukemia, 2.95 µM; in the experiment with RXF 393 renal it was 79.8 µM. Besides, the GI50 in the experiment with SF-539 CNS is 63.5 µM; in the experiment with SNB-19 CNS, 55.2 µM; in the experiment on UACC-62 melanoma it was 4.87 µM. Besides, the TGI in the experiment on CCRF-CEM leukemia was > 100 µM; with MDA-MB-435, > 100 µM; in the experiment with NCI/ADR-RES ovarian, > 100 µM; in the experiment with OVCAR-8 ovarian, > 100 µM; in the experiment with RPMI-8226 leukemia it was 23.2 µM; with RXF 393 renal, > 100 µM. In addition, the TGI with SF-539 CNS, in the experiment with SNB-19 CNS and in the experiment with UACC-62 melanoma was > 100 µM each time.
On to `O=C(NCc1ccncc1)C12CC3CC(C1)CC(c1ccc(Cl)cc1)(C3)C2`, for which the GI50 with CCRF-CEM leukemia was 17.7 µM; with IGROV1 ovarian, 13.3 µM; in the experiment on MDA-MB-435, 12.7 µM; in the experiment with NCI/ADR-RES ovarian, 17.2 µM; in the experiment on RPMI-8226 leukemia, 7.59 µM; in the experiment on RXF 393 renal, 10.7 µM. Moreover, the figures for the GI50 in the experiment on SF-539 CNS, in the experiment with SNB-19 CNS and in the experiment with UACC-62 melanoma were 14.1 µM, 13.5 µM and 5.02 µM, respectively. Moreover, the TGI in the experiment on CCRF-CEM leukemia was 45 µM; in the experiment with IGROV1 ovarian, 29.3 µM; with MDA-MB-435, 25.3 µM; in the experiment on NCI/ADR-RES ovarian it was 87.8 µM; in the experiment with RPMI-8226 leukemia it was 71.7 µM; in the experiment with RXF 393 renal, 23.6 µM. Also, the TGI in the experiment with SF-539 CNS was found to be 28.1 µM; in the experiment with SNB-19 CNS, 27.8 µM; in the experiment with UACC-62 melanoma, 18.7 µM.
For `O=C(NO)c1ccc(Cn2c(=O)n(-c3ccccc3F)c(=O)c3ccccc32)cc1`, the GI50 in the experiment with CCRF-CEM leukemia was 2.07 µM; with MDA-MB-435, 1.55 µM; with NCI/ADR-RES ovarian, 2.54 µM; in the experiment on OVCAR-8 ovarian, 1.05 µM; in the experiment with RPMI-8226 leukemia, 1.19 µM; in the experiment with RXF 393 renal it was 1.33 µM. Further, the GI50 in the experiment with SF-539 CNS was 1.53 µM; with SNB-19 CNS it was 2.54 µM; in the experiment on UACC-62 melanoma, 1.24 µM. Further, the TGI with CCRF-CEM leukemia is > 100 µM; in the experiment with MDA-MB-435, 3.26 µM; with NCI/ADR-RES ovarian it was 43 µM; in the experiment on OVCAR-8 ovarian it was 5.11 µM; with RPMI-8226 leukemia, 18.9 µM; with RXF 393 renal, 2.9 µM. Also, the values for the TGI in the experiment on SF-539 CNS, in the experiment with SNB-19 CNS and in the experiment on UACC-62 melanoma were 4.58 µM, 18.2 µM and 3.02 µM, respectively.
Take `CC/C(=C(/c1ccc(O)cc1)c1ccc(OCCN2CCCCC2)cc1)c1ccc(OC)cc1`: the GI50 with CCRF-CEM leukemia was 0.513 µM; with IGROV1 ovarian, 2.5 µM; in the experiment with MDA-MB-435, 1.58 µM; with NCI/ADR-RES ovarian, 8.15 µM; in the experiment with OVCAR-8 ovarian, 2.45 µM; in the experiment with RPMI-8226 leukemia it was 1.24 µM. The GI50 is 1.66 µM in the experiment on SF-539 CNS, 1.97 µM in the experiment on SNB-19 CNS and 2.01 µM in the experiment on UACC-62 melanoma. Also, the TGI in the experiment on CCRF-CEM leukemia worked out at 5.09 µM; in the experiment on IGROV1 ovarian, 8.95 µM; in the experiment on MDA-MB-435 it was 3.1 µM; in the experiment on NCI/ADR-RES ovarian, 22.4 µM; in the experiment on OVCAR-8 ovarian, 6.02 µM; in the experiment on RPMI-8226 leukemia, 3.61 µM. For the same compound, the TGI in the experiment on SF-539 CNS was determined as 3.19 µM; with SNB-19 CNS, 4.62 µM; in the experiment on UACC-62 melanoma it was 4.03 µM.
With `CCCCN(CCCC)CCCn1c(=O)c2c3ccccc3n(C)c2n2nnc(-c3ccccc3)c12`, the GI50 with CCRF-CEM leukemia was 4.22 µM; in the experiment on MDA-MB-435, 39 µM; in the experiment with NCI/ADR-RES ovarian, 14.3 µM; with OVCAR-8 ovarian, 39.7 µM; in the experiment with RPMI-8226 leukemia, 6 µM; in the experiment on RXF 393 renal, 14.1 µM. Further, the GI50 in the experiment with SF-539 CNS was 65.3 µM; in the experiment with SNB-19 CNS, > 100 µM; in the experiment with UACC-62 melanoma, 22.4 µM. For the same compound, the TGI in the experiment on CCRF-CEM leukemia was 92 µM; with MDA-MB-435, > 100 µM; in the experiment on NCI/ADR-RES ovarian, 67.7 µM; in the experiment with OVCAR-8 ovarian, > 100 µM; with RPMI-8226 leukemia, 49.4 µM; with RXF 393 renal it was 43 µM. The TGI was > 100 µM in the experiment on SF-539 CNS, > 100 µM in the experiment with SNB-19 CNS and 84.4 µM in the experiment on UACC-62 melanoma.
For the compound `CC(=O)C1(N=Nc2ccc(S(N)(=O)=O)cc2)CCOC1=O` (stereo unspecified), the TGI with CCRF-CEM leukemia, with IGROV1 ovarian, in the experiment with MDA-MB-435, in the experiment with NCI/ADR-RES ovarian, in the experiment on OVCAR-8 ovarian and with RXF 393 renal was > 100 µM each time. For the same compound, the TGI with SF-539 CNS, in the experiment with SNB-19 CNS and in the experiment with UACC-62 melanoma was > 100 µM each time.
For `CCOC(=O)[C@@H](C)C[C@H](Cc1ccccc1)NC(=O)c1csc([C@@H](C[C@H](C(C)C)N(C)C(=O)[C@H](CC)NC(=O)[C@H]2CCCCN2C)OC(C)=O)n1`, the GI50 in the experiment with CCRF-CEM leukemia is 0.00397 µM; in the experiment on IGROV1 ovarian it was 0.00193 µM; in the experiment on MDA-MB-435 it was < 0.00167 µM; in the experiment on NCI/ADR-RES ovarian it was 0.0675 µM; in the experiment with OVCAR-8 ovarian it was 0.00434 µM; in the experiment on RPMI-8226 leukemia it was < 0.00167 µM. Besides, the values for the GI50 in the experiment on SF-539 CNS, with SNB-19 CNS and in the experiment on UACC-62 melanoma were 0.00306 µM, 0.00199 µM and < 0.00167 µM, respectively. The TGI in the experiment with CCRF-CEM leukemia was > 16.7 µM; in the experiment with IGROV1 ovarian, > 16.7 µM; in the experiment with MDA-MB-435 it was 0.00169 µM; in the experiment with NCI/ADR-RES ovarian, > 15.7 µM; in the experiment on OVCAR-8 ovarian it was > 16.7 µM; in the experiment with RPMI-8226 leukemia it was > 16.7 µM. In addition, the figures for the TGI in the experiment with SF-539 CNS, with SNB-19 CNS and in the experiment with UACC-62 melanoma were 0.0098 µM, > 16.7 µM and > 16.7 µM, respectively.
